Test results as given in patent US8324250B2 (Hoffmann-La Roche Inc., priority 2009, dated 2012).

target: T1, recombinant human NK3 receptor (Homo sapiens, UniProt P29371); assay: [3H]SR142801 competition binding assay; conditions: membranes from HEK293 cells transiently expressing recombinant human NK3 receptor; [3H]SR142801 radioligand; 75 min at RT; Ki by Cheng-Prussoff; read-out: Data Ki (hNK-3 receptor affinity)
T1 construct: expressed in transfected cells; host or cells: HEK293 cells (transient expression), membranes
T1 sequence (P29371 1-465): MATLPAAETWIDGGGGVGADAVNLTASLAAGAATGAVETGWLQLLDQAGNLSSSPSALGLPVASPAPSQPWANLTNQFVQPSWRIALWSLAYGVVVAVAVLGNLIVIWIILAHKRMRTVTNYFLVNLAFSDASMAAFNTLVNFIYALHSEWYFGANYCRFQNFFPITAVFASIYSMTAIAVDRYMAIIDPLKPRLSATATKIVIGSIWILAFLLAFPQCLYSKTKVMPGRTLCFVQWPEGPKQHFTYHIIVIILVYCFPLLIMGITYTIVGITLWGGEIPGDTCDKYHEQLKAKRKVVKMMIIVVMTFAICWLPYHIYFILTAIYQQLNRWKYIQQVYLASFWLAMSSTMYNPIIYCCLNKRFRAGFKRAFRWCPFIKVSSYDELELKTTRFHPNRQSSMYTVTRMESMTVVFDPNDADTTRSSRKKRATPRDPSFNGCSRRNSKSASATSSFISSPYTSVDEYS
In short: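 Membranes from HEK293 cells transiently expressing the receptor, 5 μg protein/well, in 50 mM Tris-HCl pH 7.4 with 4 mM MnCl2, 1 μM phosphoramidon, 0.1% BSA; nonspecific binding defined with 10 μM SB222200. Filtration and scintillation counting; IC50 from Hill fit, Ki by Cheng-Prussoff using saturation-derived KD, duplicates.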

| Ki [nM] | SMILES |
| --- | --- |
| 5.2 | Cc1noc(-c2ccc(C(=O)N3CCC(C(=O)N(C)Cc4ccc(F)cc4)(c4ccccc4)CC3)cc2)n1 [Example 105, 1-[4-(3-Methyl-[1,2,4]oxa-diazol-5-yl)-benzoyl]-4-phenyl-piperidine-4-carboxylic acid (4-fluoro-benzyl)-methyl-amide] |
| 52.2 | C[C@H](NC(=O)C1(C2CCCC2)CCN(C(=O)c2ccc(-c3ccc(F)cc3)cc2)CC1)c1ccc(F)cc1 [Example 110, 4- Cyclopentyl-1-(4′-fluoro-biphenyl-4-carbonyl)-piperidine-4-carboxylic acid [(S)-1-(4-fluoro-phenyl)-ethyl]-amide] |
| 4.6 | Cc1noc(-c2ccc(C(=O)N3CCC(C(=O)N[C@@H](C)c4cccc(F)c4)(c4ccc(F)cc4)CC3)cc2)n1 [Example 161, 4-(4-Fluoro-phenyl)-1-[4-(3-methyl-[1,2,4]oxadiazol-5-yl)-benzoyl]-piperidine-4-carboxylic acid [(S)-1-(3-fluoro-phenyl)-ethyl]-amide] |
| 20.9 | Cc1nc(-c2ccc(C(=O)N3CCC(C(=O)N[C@@H](C)c4ccccc4)(c4ccccc4)CC3)cc2)cs1 [Example 68] |
| 35 | O=C(c1ccc(-c2ccc(F)cc2)cc1)N1CCC(C(=O)N[C@@H](c2cccc(F)c2)C2CC2)(c2ccc(F)cc2)CC1 [Example 194, 1-(4′-Fluoro-biphenyl-4-carbonyl)-4-(4-fluoro-phenyl)-piperidine-4-carboxylic acid [(R)-cyclopropyl-(3-fluoro-phenyl)-methyl]-amide] |
| 63.5 | C[C@H](NC(=O)C1(c2ccccc2)CCN(C(=O)c2cc(-c3ccc(F)cc3)no2)CC1)c1ccccc1 [Example 62, 1-[3-(4-Fluoro-phenyl)-isoxazole-5-carbonyl]-4-phenyl-piperidine-4-carboxylic acid ((S)-1-phenyl-ethyl)-amide] |
| 24.7 | C[C@H](NC(=O)C1(c2ccccc2)CCN(C(=O)c2ccc(-c3ncccn3)cc2)CC1)c1ccccc1 [Example 47, 4-Phenyl-1-(4-pyrimidin-2-yl-benzoyl)-piperidine-4-carboxylic acid ((S)-1-phenyl-ethyl)-amide] |
| 75 | C[C@H](NC(=O)C1(c2ccc(F)cc2)CCN(C(=O)C2CCN(c3ccc(C#N)cn3)CC2)CC1)c1cccc(F)c1 [Example 155, 1-(5′-Cyano-3,4,5,6-tetrahydro-2H-[1,2′]bipyridinyl-4-carbonyl)-4-(4-fluoro-phenyl)-piperidine-4-carboxylic acid [(S)-1-(3-fluoro-phenyl)-ethyl]-amide] |
| 28.5 | C[C@H](NC(=O)C1(c2ccccc2)CCN(C(=O)c2ccc(-n3cnnn3)cc2)CC1)c1ccccc1 [Example 40, 4-Phenyl-1-(4-tetrazol-1-yl-benzoyl)-piperidine-4-carboxylic acid ((S)-1-phenyl-ethyl)-amide] |
| 19.6 | C[C@H](NC(=O)C1(c2ccccc2)CCN(C(=O)c2ccc(-c3ccc(Cl)c(Cl)c3)cc2)CC1)c1ccccc1 [Example 4, 1-(3′,4′-Dichloro-biphenyl-4-carbonyl)-4-phenyl-piperidine-4-carboxylic acid ((S)-1-phenyl-ethyl)-amide] |
| 5.8 | O=C(c1ccc(-c2ccc(F)cc2)cc1)N1CCC(C(=O)NC(CC2CC2)c2ccccc2)(c2ccc(F)cc2)CC1 (stereo not shown) [Example 148, 1-(4′-Fluoro-biphenyl-4-carbonyl)-4-(4-fluoro-phenyl)-piperidine-4-carboxylic acid (2-cyclopropyl-1-phenyl-ethyl)-amide] |
| 2.7 | CC[C@H](NC(=O)C1(c2ccccc2)CCN(C(=O)c2ccc(-c3ccc(F)cc3)cc2)CC1)c1ccccc1 [Example 85, 1-(4′-Fluoro-biphenyl-4-carbonyl)-4-phenyl-piperidine-4-carboxylic acid ((S)-1-phenyl-propyl)-amide] |
| 2.9 | Cc1noc(-c2ccc(C(=O)N3CCC(C(=O)N[C@@H](C)c4ccc(F)cc4)(c4ccccc4)CC3)cc2)n1 [Example 76, 1-[4-(3-Methyl-[1,2,4]oxa-diazol-5-yl)-benzoyl]-4-phenyl-piperidine-4-carboxylic acid [(S)-1-(4-fluoro-phenyl)-ethyl]-amide] |
| 6.8 | Cc1noc(-c2ccc(C(=O)N3CCC(C(=O)N[C@@H](c4ccc(F)cc4)C(F)(F)F)(c4ccc(F)cc4)CC3)cc2)n1 (racemic) [Example 202, 4-(4-Fluoro-phenyl)-1-[4-(3-methyl-[1,2,4]oxadiazol-5-yl)-benzoyl]-piperidine-4-carboxylic acid [(SR)-2,2,2-trifluoro-1-(4-fluoro-phenyl)-ethyl]-amide] |
| 12.2 | Cc1nc(-c2ccc(C(=O)N3CCC(C(=O)N[C@@H](C)c4ccc(F)cc4)(c4ccccc4)CC3)cc2)no1 [Example 77, 1-[4-(5-Methyl-[1,2,4]oxa-diazol-3-yl)-benzoyl]-4-phenyl-piperidine-4-carboxylic acid [(S)-1-(4-fluoro-phenyl)-ethyl]-amide] |
| 34.9 | Cc1ccccc1N1CCN(C(=O)N2CCC(C(=O)N[C@@H](C)c3ccccc3)(c3ccccc3)CC2)CC1 [Example 229, 4-Phenyl-1-(4-o-tolyl-piperazine-1-carbonyl)-piperidine-4-carboxylic acid ((S)-1-phenyl-ethyl)-amide] |
| 18.3 | C[C@H](NC(=O)C1(c2ccc(F)cc2)CCN(C(=O)c2ccc(-c3ccc(F)cc3)cc2)CC1)c1ccc(F)cc1 [Example 89, 1-(4′-Fluoro-biphenyl-4-carbonyl)-4-(4-fluoro-piperidine-phenyl)-4-carboxylic acid [(S)-1-(4-fluoro-phenyl)-ethyl]-amide] |
| 21.8 | C[C@H](NC(=O)C1(c2ccccc2)CCN(C(=O)c2ccc(N3CCS(=O)(=O)CC3)cc2)CC1)c1ccccc1 [Example 9, 1-[4-(1,1-Dioxo-lλ6-thiomorpholin-4-yl)-benzoyl]-4-phenyl-piperidine-4-carboxylic acid ((S)-1-phenyl-ethyl)-amide] |
| 65.8 | C[C@H](NC(=O)C1(c2ccccc2)CCN(C(=O)c2ccc(-c3cnco3)cc2)CC1)c1ccccc1 [Example 22, 1-(4-Oxazol-5-yl-benzoyl)-4-phenyl-piperidine-4-carboxylic acid ((S)-1-phenyl-ethyl)-amide] |
| 12 | C[C@H](NC(=O)C1(c2ccc(F)cc2)CCN(C(=O)c2ccc(-c3ccc(F)cc3)cc2)CC1)c1cccc(F)c1 [Example 129, 1-(4′-Fluoro-biphenyl-4-carbonyl)-4-(4-fluoro-phenyl)-piperidine-4-carboxylic acid [(S)-1-(3-fluoro-phenyl)-ethyl]-amide] |
| 3.9 | Cc1nc(-c2ccc(C(=O)N3CCC(C(=O)N[C@@H](C)C4CCCCC4)(c4ccccc4)CC3)cc2)no1 [Example 75, 1-[4-(5-Methyl-[1,2,4]oxa-diazol-3-yl)-benzoyl]-4-phenyl-piperidine-4-carboxylic acid ((S)-1-cyclohexyl-ethyl)-amide] |
| 43 | C[C@H](NC(=O)C1(c2ccc(F)cc2)CCN(C(=O)c2ccc(N3CCCCC3=O)cc2)CC1)c1cccc(F)c1 [Example 173, 4-(4-Fluoro-phenyl)-1-[4-(2-oxo-piperidin-1-yl)-benzoyl]-piperidine-4-carboxylic acid [(S)-1-(3-fluoro-phenyl)-ethyl]-amide] |
| 12.5 | C[C@H](NC(=O)C1(c2ccccc2)CCN(C(=O)N2CCN(c3ccc(Cl)cc3)CC2)CC1)c1ccccc1 [Example 219, 1-[4-(4-Chloro-phenyl)-piperazine-1-carbonyl]-4-phenyl-piperidine-4-carboxylic acid ((S)-1-phenyl-ethyl)-amide] |
| 76.8 | C[C@H](NC(=O)C1(c2ccccc2)CCN(C(=O)c2ccc(N3CCOCC3)nc2)CC1)c1ccccc1 [Example 10, 1-(6-Morpholin-4-yl-pyridine-3-carbonyl)-4-phenyl-piperidine-4-carboxylic acid ((S)-1-phenyl-ethyl)-amide] |
| 75 | N#Cc1ccc(N2CCC(C(=O)N3CCC(C(=O)NC(c4ccc(F)cc4)C(F)(F)F)(c4ccc(F)cc4)CC3)CC2)nc1 (stereo not shown) [Example 154, 1-(5′-Cyano-3,4,5,6-tetrahydro-2H-[1,2′]bipyridinyl-4-carbonyl)-4-(4-fluoro-phenyl)-piperidine-4-carboxylic acid [2,2,2-trifluoro-1-(4-fluoro-phenyl)-ethyl]-amide] |
| 6.2 | Cc1noc(-c2ccc(C(=O)N3CCC(C(=O)N[C@@H](C)c4ccc(F)cc4)(c4ccc(F)cc4)CC3)cc2)n1 [Example 88, 4-(4-Fluoro-phenyl)-1-{4-(3-methyl-[1,2,4]oxa-diazol-5-yl)-benzoyl] piperidine-4-carboxylic acid [(S)-1-(4-fluoro-phenyl)-ethyl]-amide] |
| 98.5 | C[C@H](NC(=O)C1(c2ccccc2)CCN(C(=O)c2ccc(-n3cncn3)cc2)CC1)c1ccccc1 [Example 34, 4-Phenyl-1-(4-[1,2,4]triazo 1-1-yl-benzoyl)-piperidine-4-carboxylic acid ((S)-1-phenyl-ethyl)-amide] |
| 84.4 | C[C@H](NC(=O)C1(c2ccccc2)CCN(C(=O)c2ccc(N3CCOCC3)cc2)CC1)c1ccccc1 [Example 8, 1-(4-Morpholin-4-yl-benzoyl)-4-phenyl-piperidine-4-carboxylic acid ((S)-l-phenyl-ethyl)-amide] |
